Measured values as given in patent US20090155815A1, “CRYSTAL STRUCTURE OF THE CARBOXYL TRANSFERASE DOMAIN OF HUMAN ACETYL-COA CARBOXYLASE 2 PROTEIN (ACC2 CT) AND USES THEREOF” (priority 2007, published 2009).
Read-outs that look alike come from different tables or passages of the source.

Test system: ACC2 CT
Assay: NADH reverse-coupled assay
Assay type: biochemical, human
Settings: reverse reaction
Experimental: In the reverse reaction, ACC2 CT catalyzes the production of Acetyl CoA using malonyl CoA and biocytin as the substrates.
The activity of ACC2 CT in the reverse reaction is measured indirectly by coupling the reaction with two other enzymes, malate dehydrogenase and citrate synthase. Malate dehydrogenase converts NAD+ and malate to produce NADH and oxaloacetate. The acetyl CoA produced by the ACC2 CT reverse reaction and the oxaloacetate produced by the malate dehydrogenase reaction are consumed as the substrates for the citrate synthase reaction. The final products of the citrate synthase reaction are citric acid and CoA, but it is the production of NADH that acts as the readout for the activity of ACC2 CT. The conversion of NAD+ to NADH is detected by reading absorbance at 340 nm.
The final assay conditions are 50 nM ACC2 CT, 1 mM Malonyl CoA, 20 mM Biocytin, 8 mM Malic Acid, 3 mM NAD+, 100 units/mL Malate Dehydrogenase, 20 units/mL Citrate Synthase, 50 mM Hepes pH 7.0, 100 mM NaCl, 0.01% Tween 20, and compounds are used with a 200-fold dilution of 100% DMSO stock for a final concentration of 0.5% DMSO.
Absorbance data is collected at 340 nm and 37° C. for at least 30 minutes. Linear kinetic rates (mOD/min) are used to calculate % inhibition values of the compounds tested.

SMILES	Km (could not be precisely determined, estimated, read-out: kM of Biocytin) [µM]	Km (against 50 nM ACC2/20 mM Biocytin, 37° C., absorbance 340 nm, read-out: kM of Malonyl CoA) [µM]	Km (against ACC2/No Biocytin, 37° C., absorbance 340 nm, read-out: kM of Malonyl CoA) [µM]
N[C@@H](CCCCNC(=O)CCCC[C@@H]1SC[C@@H]2NC(=O)N[C@@H]21)C(=O)O [Biocytin]	~20000		
CC(C)(COP(=O)(O)OP(=O)(O)OC[C@H]1O[C@@H](n2cnc3c(N)ncnc32)[C@H](O)[C@@H]1OP(=O)(O)O)[C@@H](O)C(=O)NCCC(=O)NCCSC(=O)CC(=O)O [Malonyl CoA]		160	130
